What was measured:
[1] = target: Cyclin-Y/Cyclin-dependent kinase 16 (Homo sapiens) (UniProt Q00536+Q8ND76); assay: Inhibition of CDK16/Cyclin Y (unknown origin) at 500 nM by ADP-Glo kinase assay relative to control; format: protein-complex assay
[2] = Half life in Sprague-Dawley rat at 20 mg/kg, po; format: ADME, organism-based; conditions: in vivo
[3] = Cmax in Sprague-Dawley rat at 20 mg/kg, po; format: ADME, organism-based; design: dose 20 mg/kg, route po; conditions: in vivo
HCT-116 [4] = assay: Induction of apoptosis in human HCT-116 cells assessed as early apoptotic cells at 10 nM measured after 48 hrs by Annexin V-FITC/PI assay (reference value: 3.16%); format: functional
[5] = Tmax in Sprague-Dawley rat at 2 mg/kg, iv; format: ADME, organism-based; conditions: in vivo
[6] = Toxicity in BALB/cA-nu mouse xenografted with human HCT116 cells assessed as liver injury by measuring AST level at 10 mg/kg, intragastric administration for 21 days; format: organism-based, HCT-116; conditions: in vivo, po, 504 h, time 21 day
HCT-116 [7] = assay: Cell cycle arrest in human HCT-116 cells assessed as accumulation of cells at G0-G1 phase at 10 nM measured after 48 hrs by flow cytometry (reference value: 62.18%); format: functional
HCT-116 [8] = assay: Cell cycle arrest in human HCT-116 cells assessed as accumulation of cells at G0-G1 phase at 20 nM measured after 48 hrs by flow cytometry (reference value: 62.18%); format: functional
[9] = Volume of distribution at steady state in Sprague-Dawley rat at 2 mg/kg, iv; format: ADME, organism-based; conditions: in vivo, read-out: Vdss
[10] = target: CDK4/Cyclin D3 (Homo sapiens) (UniProt P11802+P30281); assay: Inhibition of CDK4/Cyclin D3 (unknown origin) at 500 nM by ADP-Glo kinase assay relative to control; format: protein-complex assay
Cholinesterase = Cholinesterase (Equus caballus, UniProt P81908); assay: Inhibition of equine serum BuChE using […] as substrate for 20 mins by Ellman's method
CDK9/cyclin T1 = CDK9/cyclin T1 (Homo sapiens, UniProt P50750)
Description: Inhibition of CDK9/CyclinT1 (unknown origin) by ADP-Glo kinase assay

[11] = target: CDK3/Cyclin E (Homo sapiens) (UniProt P24864+Q00526); assay: Inhibition of CDK3/Cyclin E1 (unknown origin) at 500 nM by ADP-Glo kinase assay relative to control; format: protein-complex assay
[12] = Toxicity in BALB/cA-nu mouse xenografted with human HCT116 cells assessed as behavioral changes at 10 mg/kg, intragastric administration for 21 days; format: organism-based, HCT-116; conditions: in vivo, po, 504 h, time 21 day
HCT-116 [13] = assay: Induction of apoptosis in human HCT-116 cells assessed as necrotic cells at 20 nM measured after 48 hrs by Annexin V-FITC/PI assay (reference value: 2.31%); format: functional
HCT-116 [14] = assay: Induction of apoptosis in human HCT-116 cells assessed as early apoptotic cells at 20 nM measured after 48 hrs by Annexin V-FITC/PI assay (reference value: 3.16%); format: functional
HCT-116 [15] = assay: Cell cycle arrest in human HCT-116 cells assessed as accumulation of cells at […] phase at 10 nM measured after 48 hrs by flow cytometry (reference value: 6.39%); format: functional
Acetylcholinesterase = Acetylcholinesterase (Electrophorus electricus, UniProt O42275); assay: Inhibition of electric eel AChE using acetylthiocholine […] as substrate for 20 mins by Ellman's method
[16] = target: CDK9/cyclin T1 (Homo sapiens) (UniProt O60563+P50750); assay: Inhibition of CDK9/CyclinT1 (unknown origin) at 500 nM by ADP-Glo kinase assay relative to control; format: protein-complex assay
[17] = target: Cyclin-dependent kinase 1/cyclin B1 (Homo sapiens) (UniProt P06493+P14635); conditions: dose 500.0 nM
Description: Inhibition of CDK1/Cyclin B1 (unknown origin) at 500 nM by ADP-Glo kinase assay relative to control

HCT-116 [18] = assay: Cell cycle arrest in human HCT-116 cells assessed as accumulation of cells at […] phase at 20 nM measured after 48 hrs by flow cytometry (reference value: 6.39%); format: functional
[19] = target: Cyclin-dependent kinase 5/CDK5 activator 1 (Homo sapiens) (UniProt Q00535+Q15078); assay: Inhibition of CDK5/p35 NCK (unknown origin) at 500 nM by ADP-Glo kinase assay relative to control; format: protein-complex assay
[20] = target: CDK18/Cyclin Y (Homo sapiens) (UniProt Q07002+Q8ND76); assay: Inhibition of CDK18/Cyclin Y (unknown origin) at 500 nM by ADP-Glo kinase assay relative to control; format: protein-complex assay
[21] = AUC (0 to t) in Sprague-Dawley rat at 20 mg/kg, po; format: ADME, organism-based; design: dose 20 mg/kg, route po; conditions: in vivo

Sequence of CDK3/Cyclin E (Homo sapiens) (P24864 whole entry, looked up): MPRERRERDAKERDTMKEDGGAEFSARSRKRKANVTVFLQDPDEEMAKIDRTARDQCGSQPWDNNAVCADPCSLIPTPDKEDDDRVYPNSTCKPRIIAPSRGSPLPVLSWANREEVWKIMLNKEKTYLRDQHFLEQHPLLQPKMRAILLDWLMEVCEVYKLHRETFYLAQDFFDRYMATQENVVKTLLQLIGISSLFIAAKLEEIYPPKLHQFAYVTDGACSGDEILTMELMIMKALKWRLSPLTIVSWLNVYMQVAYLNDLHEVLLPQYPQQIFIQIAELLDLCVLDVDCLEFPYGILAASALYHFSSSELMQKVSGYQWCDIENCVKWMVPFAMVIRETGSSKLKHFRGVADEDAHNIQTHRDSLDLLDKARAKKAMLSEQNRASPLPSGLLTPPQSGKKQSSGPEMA
Sequence of CDK3/Cyclin E (Homo sapiens) (Q00526 whole entry, looked up): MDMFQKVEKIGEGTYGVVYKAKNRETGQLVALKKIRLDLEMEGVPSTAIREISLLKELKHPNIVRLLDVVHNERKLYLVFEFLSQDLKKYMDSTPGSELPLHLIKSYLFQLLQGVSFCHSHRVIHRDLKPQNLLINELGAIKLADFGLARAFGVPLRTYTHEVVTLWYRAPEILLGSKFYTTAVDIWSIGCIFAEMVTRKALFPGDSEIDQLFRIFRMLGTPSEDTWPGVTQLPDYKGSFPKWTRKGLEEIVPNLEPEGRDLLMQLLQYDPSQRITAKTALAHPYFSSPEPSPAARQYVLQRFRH
Sequence of Cyclin-dependent kinase 5/CDK5 activator 1 (Homo sapiens) (Q00535 whole entry): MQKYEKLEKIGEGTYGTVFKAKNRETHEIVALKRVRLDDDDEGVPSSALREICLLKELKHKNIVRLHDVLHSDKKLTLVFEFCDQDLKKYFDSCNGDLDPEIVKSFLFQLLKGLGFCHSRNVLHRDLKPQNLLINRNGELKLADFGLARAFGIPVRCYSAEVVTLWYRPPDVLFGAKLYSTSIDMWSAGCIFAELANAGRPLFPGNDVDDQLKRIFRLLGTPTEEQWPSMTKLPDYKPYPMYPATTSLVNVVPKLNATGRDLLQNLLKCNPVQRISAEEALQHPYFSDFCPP
Sequence of Cyclin-dependent kinase 5/CDK5 activator 1 (Homo sapiens) (Q15078 99-307 partner limits assumed): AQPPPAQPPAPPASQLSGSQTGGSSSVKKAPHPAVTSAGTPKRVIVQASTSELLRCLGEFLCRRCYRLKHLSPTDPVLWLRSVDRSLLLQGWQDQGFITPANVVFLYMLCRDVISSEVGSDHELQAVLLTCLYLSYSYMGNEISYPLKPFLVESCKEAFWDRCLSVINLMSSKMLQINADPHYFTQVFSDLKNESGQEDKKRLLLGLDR
Sequence of CDK9/cyclin T1 (O60563 whole entry): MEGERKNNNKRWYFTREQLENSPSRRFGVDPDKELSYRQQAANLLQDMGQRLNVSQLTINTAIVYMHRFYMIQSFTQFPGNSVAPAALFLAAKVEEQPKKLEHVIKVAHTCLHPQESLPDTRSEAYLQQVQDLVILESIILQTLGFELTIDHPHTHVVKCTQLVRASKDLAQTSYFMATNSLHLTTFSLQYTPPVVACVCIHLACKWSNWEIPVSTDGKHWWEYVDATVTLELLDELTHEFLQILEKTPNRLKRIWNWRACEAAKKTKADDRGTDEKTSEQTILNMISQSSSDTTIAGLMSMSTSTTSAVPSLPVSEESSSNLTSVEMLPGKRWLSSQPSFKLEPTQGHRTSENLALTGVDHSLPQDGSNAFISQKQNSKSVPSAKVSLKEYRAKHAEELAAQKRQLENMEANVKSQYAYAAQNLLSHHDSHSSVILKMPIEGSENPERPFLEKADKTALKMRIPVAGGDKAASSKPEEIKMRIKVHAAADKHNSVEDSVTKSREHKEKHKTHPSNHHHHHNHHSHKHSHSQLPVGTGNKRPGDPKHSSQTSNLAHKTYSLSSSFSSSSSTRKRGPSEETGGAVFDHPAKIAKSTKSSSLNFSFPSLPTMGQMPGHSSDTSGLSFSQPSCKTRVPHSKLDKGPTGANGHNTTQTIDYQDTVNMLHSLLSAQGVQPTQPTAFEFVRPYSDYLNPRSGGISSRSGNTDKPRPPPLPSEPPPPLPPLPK
Sequence of CDK9/cyclin T1 (P50750 whole entry): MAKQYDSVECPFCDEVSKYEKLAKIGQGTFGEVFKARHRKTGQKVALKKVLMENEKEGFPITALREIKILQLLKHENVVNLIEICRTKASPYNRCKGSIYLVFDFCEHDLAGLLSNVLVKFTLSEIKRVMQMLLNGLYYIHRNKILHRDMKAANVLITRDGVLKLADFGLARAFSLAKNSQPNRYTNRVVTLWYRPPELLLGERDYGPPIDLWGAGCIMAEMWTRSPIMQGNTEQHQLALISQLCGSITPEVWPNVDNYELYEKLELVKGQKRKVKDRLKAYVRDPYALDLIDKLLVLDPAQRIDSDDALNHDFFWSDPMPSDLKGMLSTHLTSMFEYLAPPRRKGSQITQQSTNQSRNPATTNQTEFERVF
Sequence of Cyclin-dependent kinase 1/cyclin B1 (Homo sapiens) (P06493 whole entry, looked up): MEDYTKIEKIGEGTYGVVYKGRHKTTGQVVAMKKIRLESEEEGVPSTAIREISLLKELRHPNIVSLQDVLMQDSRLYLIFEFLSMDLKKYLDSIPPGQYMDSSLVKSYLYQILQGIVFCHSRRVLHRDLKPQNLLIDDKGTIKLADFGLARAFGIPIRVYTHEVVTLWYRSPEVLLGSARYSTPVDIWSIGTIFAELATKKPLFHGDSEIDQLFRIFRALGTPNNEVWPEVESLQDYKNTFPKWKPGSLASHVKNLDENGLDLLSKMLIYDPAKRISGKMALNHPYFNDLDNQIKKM
Sequence of Cyclin-dependent kinase 1/cyclin B1 (Homo sapiens) (P14635 whole entry, looked up): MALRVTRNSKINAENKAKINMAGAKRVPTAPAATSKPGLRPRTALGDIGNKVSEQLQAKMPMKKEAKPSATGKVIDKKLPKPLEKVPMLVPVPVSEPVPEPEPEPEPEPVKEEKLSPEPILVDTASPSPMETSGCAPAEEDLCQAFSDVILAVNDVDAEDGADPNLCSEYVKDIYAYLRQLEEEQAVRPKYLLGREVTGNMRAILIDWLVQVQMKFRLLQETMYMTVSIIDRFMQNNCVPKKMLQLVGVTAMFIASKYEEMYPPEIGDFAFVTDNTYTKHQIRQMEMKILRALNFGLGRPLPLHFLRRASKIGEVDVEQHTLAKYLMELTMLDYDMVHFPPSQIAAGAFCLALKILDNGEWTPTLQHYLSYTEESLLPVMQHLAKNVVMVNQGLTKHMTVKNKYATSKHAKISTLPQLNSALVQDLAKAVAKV
Sequence of Cholinesterase (P81908 whole entry): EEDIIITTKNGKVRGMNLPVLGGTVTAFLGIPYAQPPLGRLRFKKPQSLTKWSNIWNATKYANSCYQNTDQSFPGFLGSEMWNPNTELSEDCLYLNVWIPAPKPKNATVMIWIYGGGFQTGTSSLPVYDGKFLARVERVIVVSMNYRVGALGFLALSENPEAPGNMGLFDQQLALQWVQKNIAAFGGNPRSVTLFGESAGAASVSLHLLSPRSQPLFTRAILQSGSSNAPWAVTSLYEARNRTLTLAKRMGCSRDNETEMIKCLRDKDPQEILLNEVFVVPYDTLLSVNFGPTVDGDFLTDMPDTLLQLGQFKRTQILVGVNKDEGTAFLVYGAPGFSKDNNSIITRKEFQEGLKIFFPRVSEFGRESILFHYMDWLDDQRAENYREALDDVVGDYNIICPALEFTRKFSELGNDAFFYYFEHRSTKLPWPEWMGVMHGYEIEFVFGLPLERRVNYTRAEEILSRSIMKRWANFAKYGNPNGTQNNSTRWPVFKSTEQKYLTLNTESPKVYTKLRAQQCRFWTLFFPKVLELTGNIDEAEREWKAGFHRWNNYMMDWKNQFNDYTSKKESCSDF
Sequence of Acetylcholinesterase (O42275 whole entry): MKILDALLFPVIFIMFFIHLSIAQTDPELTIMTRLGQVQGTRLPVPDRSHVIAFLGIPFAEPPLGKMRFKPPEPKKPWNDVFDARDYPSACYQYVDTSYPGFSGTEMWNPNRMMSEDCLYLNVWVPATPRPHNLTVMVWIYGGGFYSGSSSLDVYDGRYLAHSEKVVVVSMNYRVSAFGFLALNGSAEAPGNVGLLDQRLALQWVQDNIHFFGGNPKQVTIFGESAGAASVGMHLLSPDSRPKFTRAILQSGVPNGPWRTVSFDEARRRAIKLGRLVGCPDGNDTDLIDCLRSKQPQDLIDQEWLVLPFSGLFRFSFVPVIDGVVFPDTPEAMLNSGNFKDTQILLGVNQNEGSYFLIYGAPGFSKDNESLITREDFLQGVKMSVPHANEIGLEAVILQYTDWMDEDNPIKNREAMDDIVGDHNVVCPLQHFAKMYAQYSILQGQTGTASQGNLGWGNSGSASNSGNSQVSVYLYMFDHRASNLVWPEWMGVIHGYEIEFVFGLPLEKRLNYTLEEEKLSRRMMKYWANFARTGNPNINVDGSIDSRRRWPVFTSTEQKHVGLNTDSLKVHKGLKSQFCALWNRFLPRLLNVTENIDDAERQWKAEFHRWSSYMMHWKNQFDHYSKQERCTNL

Cl.N[C@H]1CCN(c2c3c(nc4ccc(-c5ccnc(NC(=O)C6CC6)n5)cc24)CCCCC3)C1
inhibition [1]: 76.1% | half-life [2]: 106 min | Cmax [3]: 67.8 ng/mL | Activity (HCT-116 [4]): 16.3% | Tmax [5]: 4.98 min | Activity [6]: Non-Toxic | Activity (HCT-116 [7]): 46.65% | Activity (HCT-116 [8]): 37.51% | Vd [9]: 12.6 L/kg | inhibition [10]: 29.4% | IC50 (Cholinesterase): 2.77 µM | IC50 (CDK9/cyclin T1): 0.00241 µM | inhibition [11]: 65.5% | Activity [12]: Non-Toxic | Activity (HCT-116 [13]): 1.23% | Activity (HCT-116 [14]): 32.6% | Activity (HCT-116 [15]): 10.6% | IC50 (Acetylcholinesterase): 19 µM | inhibition [16]: 99.8% | inhibition [17]: 77.3% | Activity (HCT-116 [18]): 13.11% | inhibition [19]: 41.4% | inhibition [20]: 68.1% | AUC(0-t) [21]: 302 ng·h/mL

From ChEMBL document CHEMBL5352406 (Eur J Med Chem, 2022)
